The target of data set [1] is T1, human chemokine receptor CCR3 (Homo sapiens, UniProt P51677).
T1 construct: expressed in transfected cells; host or cells: K562 cells (membrane preparation)
T1 sequence (P51677 1-355): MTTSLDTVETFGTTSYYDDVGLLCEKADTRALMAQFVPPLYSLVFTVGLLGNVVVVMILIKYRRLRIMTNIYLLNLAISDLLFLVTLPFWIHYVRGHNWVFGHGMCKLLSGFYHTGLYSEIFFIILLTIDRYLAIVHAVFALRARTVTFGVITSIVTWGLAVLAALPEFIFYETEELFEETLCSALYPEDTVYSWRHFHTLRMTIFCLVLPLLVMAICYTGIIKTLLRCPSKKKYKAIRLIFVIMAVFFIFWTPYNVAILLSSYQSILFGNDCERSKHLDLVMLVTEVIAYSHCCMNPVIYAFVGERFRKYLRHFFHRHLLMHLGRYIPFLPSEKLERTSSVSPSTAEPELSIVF
Kind of data set: CCR3 receptor binding assay (SPA, 125I-eotaxin-1, membranes of hCCR3 transfected K562 cells). To be noted: CCR3-Receptor Binding Protocol, radioligand 125I-eotaxin-1; read-out: Affinity (Ki-value). From the text:
Cell lines for expressing the receptor of interest include those naturally expressing the chemokine receptor, such as EOL-3 or THP-1, those induced to express the chemokine receptor by the addition of chemical or protein agents, such as HL-60 or AML14.3D10 cells treated with, for example, butyric acid with interleukin-5 present, or a cell engineered to express a recombinant chemokine receptor, such as CHO or HEK-293. Finally, blood or tissue cells, for example human peripheral blood eosinophils, isolated using methods as described by Hansel et al., J. Immunol. Methods, 145, 105–110 (1991), can be utilized in such assays. In particular, the compound of the present invention have activity in binding to the CCR-3 receptor in the aforementioned assays. […] Such a result is indicative of the intrinsic activity of the compounds as modulators of chemokine receptor activity. A general binding protocol is described below.
CCR3-Receptor Binding Protocol
The CCR3 receptor binding test is based on a K562 cell line (leukemia myelogenic blast cells ) transfected with the human chemokine receptor CCR3 (hCCR3-C1). The cell membranes were prepared by disrupting the hCCR3 transfected K562 cells by nitrogen […] and centrifugation at 40000 g, 4° C. for 1 h. The membranes were re-suspended in the SPA incubation buffer (see below) without bovine serum albumin for storage in aliquots at −80° C.
The CCR3 receptor binding assay with the radioligand ^125Jodine-eotaxin-1 was performed in a Scintillation Proximity Assay (SPA) design. Cell membranes of hCCR3 C1 cells were diluted in suitable concentrations (0.5–5 ug protein/well ) in 96 well microtiter plates (1450–401, Wallac).
The test incubation mixture comprising 60 μl of the membrane suspension, 80 μl of the Wheat Germ Agglutinin coated PVT beads (organic scintillator, Amersham Pharmacia biotech) in a concentration of 0.4 mg and 40 μl of radiolabelled ^125J rhEotaxin (Amersham, IM290) were incubated with 20 μl of the test compound (dissolved in DMSO dilutions ) for 2 hours. The SPA incubation buffer contained 25 mM HEPES, 25 mM MgCl2 6×H2O, 1 mM CaCl2 2×H2O and 0.1% bovine serum albumin. Included were controls for specific binding (no displacer added) and non-specific binding by adding unlabelled rhEotaxin (R&D Systems) or a test compound. Bound radioactivity was determined by scintillation counter (Micro Beta “Trilux”, Wallac). Determination of affinity of test compounds (dissociation constant Ki) was calculated by iterative fitting of experimental data using the law of mass action based program “easy sys” (Schittkowski, Num Math 68, 129–142 (1994)).

Structures can show the parent of a compound that is named as a salt.

With `C(=C1/CCN2Cc3ccccc3N=C12)/c1cccs1` [Example 114], the melting point lay in the range of 208 to 210 °C. In addition, in data set [1], the inhibitory constant (Ki) lay in the range of 1 to 10 µM.

On to `CCc1ccccc1C=C1CCN2Cc3ccccc3N=C12` [Example 110], for which the Ki in data set [1] was 1 to 10 µM.

Compound `CCc1ccccc1C=C1CCN2Cc3ccccc3N=C12` (as salt: hydrochloride) [Example 127, 3-(2-Ethylbenzylidene)-1,2,3,9-tetrahydro-pyrrolo[2,1-b]quinazoline] gave a melting point of 224 to 225 °C.

`N=c1c2c(C3CC3)csc2nc2n1CC/C2=C\c1ccccc1Br` [Example 305] registered a melting point of 209 °C. For the same compound, the Ki in data set [1] lay within 0.1 to 1 µM.

The compound `FC(F)(F)c1ccccc1/C=C1\CCN2Cc3ccccc3N=C12` (as salt: HCl) [Example 108] gave a melting point of 109 to 110 °C.

`Clc1ccccc1C=C1CCN2Cc3ccccc3N=C12` [Example 103] registered a melting point of 190 to 191 °C. In addition, the Ki in data set [1] was 0.001 to 0.1 µM.

On to `CCc1ccccc1/C=C1\CCn2c1nc1ccccc1c2=N` [Example 204], for which the Ki in data set [1] lay in the range of 0.1 to 1 µM.

Compound `Clc1ccc(C=C2CCN3Cc4ccccc4N=C23)c(Cl)c1` [Example 120] yielded a melting point of 187 to 188 °C. The inhibition constant Ki in data set [1] was 1 to 10 µM.

For the compound `FC(F)(F)Oc1ccccc1C=C1CCN2Cc3ccccc3N=C12` [Example 122], the inhibitory constant (Ki) in data set [1] lay in the range of 1 to 10 µM.

As to `Brc1cccc2cccc(C=C3CCN4Cc5ccccc5N=C34)c12` [Example 124], the melting point was 252 to 255 °C. Further, the Ki in data set [1] is 1 to 10 µM.

`C(=C1/CCN2Cc3ccccc3N=C12)/c1ccsc1` [Example 116] registered a melting point of 208 to 209 °C. In data set [1], the inhibition constant (Ki) was in the range of 1 to 10 µM.

On to `N=c1c2ccccc2nc2n1CC/C2=C\c1ccccc1I` [Example 203], for which the Ki in data set [1] lay within 0.001 to 0.1 µM.

The compound `CN(C)c1ccc(/C=C2\CCN3Cc4ccccc4N=C23)c(Cl)c1` (as salt: HCl) [Example 107] yielded a melting point of over 300 °C.

`N=c1c2ccccc2nc2n1CC/C2=C\c1ccccc1Cl` [Example 202] displayed a melting point of 202 to 203 °C. The Ki in data set [1] was in the range of 0.001 to 0.1 µM.

As for `N=c1c2ccsc2nc2n1CCC2=Cc1ccccc1Br` [Example 301, 7-(2-Bromobenzylidene)-6,7-dihydro-5H-1-thia-4a,8-diazo-s-indacen-4-ylideneamine], the melting point is 183 to 184 °C. Further, the Ki in data set [1] lay within 0.001 to 0.1 µM.

Compound `FC(F)(F)Oc1ccccc1C=C1CCN2Cc3ccccc3N=C12` (as salt: HCl) [Example 122] gave a melting point of 225 °C.

`Clc1ccccc1/C=C1\CCN2Cc3cc(Br)cc(Br)c3N=C12` [Example 102]: the melting point fell in the range of 214 to 219 °C. The inhibition constant (Ki) in data set [1] lay in the range of 1 to 10 µM.

For `Cc1sc2nc3n(c(=N)c2c1C)CC/C3=C\c1ccccc1Br` [Example 303], the melting point was 180 °C. Also, the inhibitory constant (Ki) in data set [1] was 0.1 to 1 µM.

As to `Brc1ccccc1C=C1CCN2Cc3ccccc3N=C12` [Example 101, 3-(2-Bromobenzylidene)-1,2,3,9-tetrahydro-pyrrolo[2,1-b]quinazoline], the inhibitory constant (Ki) in data set [1] was 0.001 to 0.1 µM.

Consider `COc1cc2nc3n(c(=N)c2cc1OC)CC/C3=C\c1ccccc1Br` [Example 206], for which the melting point fell in the range of 192 to 194 °C. The Ki in data set [1] fell in the range of 0.1 to 1 µM.

Regarding `FC(F)(F)c1ccccc1/C=C1\CCN2Cc3ccccc3N=C12` [Example 108], in data set [1], the inhibition constant (Ki) was in the range of 1 to 10 µM.

Take `N=c1c2ccccc2nc2n1CCC2=Cc1ccccc1Br` [Example 201, 3-(2-Bromobenzylidene)-9-imino-2,3-dihydro-1H-pyrrolo[2,1-b]quinazoline]: the Ki in data set [1] lay within 0.001 to 0.1 µM.

For `COc1ccc(/C=C2\CCN3Cc4ccccc4N=C23)cc1C` [Example 119], the melting point lay within 174 to 175 °C. Further, the inhibition constant Ki in data set [1] was in the range of 1 to 10 µM.

Take `COc1ccc(C=C2CCn3c2nc2ccccc2c3=N)cc1` [Example 205]: the melting point is 175 to 177 °C. Also, the Ki in data set [1] was in the range of 1 to 10 µM.

Take `C(=C1/CCN2Cc3ccccc3N=C12)/c1ccccc1-c1ccccc1` [Example 117]: in data set [1], the inhibition constant Ki lay in the range of 1 to 10 µM.

`C(=C1/CCN2Cc3ccccc3N=C12)/c1ccccc1-c1ccccc1` (as salt: HCl) [Example 117] registered a melting point of 255 to 256 °C.

`Clc1cccc(Cl)c1C=C1CCN2Cc3ccccc3N=C12` [Example 105]: the melting point lay in the range of 198 to 199 °C. In addition, the Ki in data set [1] was in the range of 1 to 10 µM.

In the case of `CN(C)c1ccc(/C=C2\CCN3Cc4ccccc4N=C23)c(Cl)c1` [Example 107], the inhibition constant Ki in data set [1] lay within 1 to 10 µM.

In the case of `Fc1ccccc1/C=C1\CCN2Cc3ccccc3N=C12` (as salt: HCl) [Example 106], the melting point turned out to be 285 °C.

As to `Fc1ccccc1/C=C1\CCN2Cc3ccccc3N=C12` [Example 106], the inhibition constant (Ki) in data set [1] was 1 to 10 µM.

For the compound `Clc1ccccc1C=C1CCCN2Cc3ccccc3N=C12` [Example 126, 6-(2-Chlorobenzylidene)-6,8,9,11-tetrahydro-7H-pyrido[2,1-b]quinazoline], the melting point lay in the range of 242 to 248 °C. For the same compound, the Ki in data set [1] lay within 1 to 10 µM.

`Cc1oc2nc3n(c(=N)c2c1C)CC/C3=C\c1ccccc1Br` [Example 306] came in with a melting point of over 290 °C. For the same compound, the Ki in data set [1] fell in the range of 0.1 to 1 µM.

`Fc1ccc(C=C2CCN3Cc4ccccc4N=C23)c(Cl)c1` [Example 118] registered a melting point of 202 to 203 °C. The inhibition constant (Ki) in data set [1] lay in the range of 0.1 to 1 µM.

The compound `Clc1ccc(/C=C2\CCN3Cc4ccccc4N=C23)cc1Cl` [Example 112] returned a melting point of 200 °C. For the same compound, the inhibition constant (Ki) in data set [1] was 0.1 to 1 µM.

As for `C(=C1CCN2Cc3ccccc3N=C12)c1ccco1` [Example 115], the melting point came to 170 °C. Besides, the inhibitory constant (Ki) in data set [1] lay in the range of 1 to 10 µM.

`CN(C)c1ccc(/C=C2\CCN3Cc4ccccc4N=C23)cc1` [Example 111] gave a melting point of 205 °C. Besides, in data set [1], the Ki lay within 1 to 10 µM.

In turn, `N=c1c2cccnc2nc2n1CC/C2=C\c1ccccc1Br` [Example 208] displayed a melting point of 232 °C. Further, in data set [1], the Ki lay in the range of 0.1 to 1 µM.

In the case of `CCOc1ccccc1/C=C1\CCN2Cc3ccccc3N=C12` [Example 113], the melting point fell in the range of 157 to 158 °C. For the same compound, in data set [1], the inhibition constant Ki was in the range of 1 to 10 µM.

`CCc1ccccc1C=C1CCN2Cc3ccccc3N=C12` (as salt: HCl) [Example 110] gave a melting point of 257 °C.

One may read the Ki as a measure of affinity in units of concentration, obtained from inhibition or displacement. By melting point is commonly meant the temperature of the solid-liquid transition.

These data come from patent US7214703B2, “Pyrrolidinohydrochinazolines” (Boehringer Ingelheim International GmbH, priority 2003, dated 2007).
